Key:
Assay type in all cases: biochemical
Btk = Btk (Homo sapiens, UniProt Q06187); experiment: radiometric kinase assay and 400-kinase panel (ProQinase); also Ba/F3 cells expressing the kinase domain
Lyn = Lyn (Homo sapiens, UniProt P07948); experiment: as above
Syk = Syk (Homo sapiens, UniProt P43405); experiment: as above
Bmx = molecular target: T1, Bmx (Homo sapiens, UniProt P51813); experiment: 400-kinase panel, residual activity at […]
T1 sequence (P51813 1-675): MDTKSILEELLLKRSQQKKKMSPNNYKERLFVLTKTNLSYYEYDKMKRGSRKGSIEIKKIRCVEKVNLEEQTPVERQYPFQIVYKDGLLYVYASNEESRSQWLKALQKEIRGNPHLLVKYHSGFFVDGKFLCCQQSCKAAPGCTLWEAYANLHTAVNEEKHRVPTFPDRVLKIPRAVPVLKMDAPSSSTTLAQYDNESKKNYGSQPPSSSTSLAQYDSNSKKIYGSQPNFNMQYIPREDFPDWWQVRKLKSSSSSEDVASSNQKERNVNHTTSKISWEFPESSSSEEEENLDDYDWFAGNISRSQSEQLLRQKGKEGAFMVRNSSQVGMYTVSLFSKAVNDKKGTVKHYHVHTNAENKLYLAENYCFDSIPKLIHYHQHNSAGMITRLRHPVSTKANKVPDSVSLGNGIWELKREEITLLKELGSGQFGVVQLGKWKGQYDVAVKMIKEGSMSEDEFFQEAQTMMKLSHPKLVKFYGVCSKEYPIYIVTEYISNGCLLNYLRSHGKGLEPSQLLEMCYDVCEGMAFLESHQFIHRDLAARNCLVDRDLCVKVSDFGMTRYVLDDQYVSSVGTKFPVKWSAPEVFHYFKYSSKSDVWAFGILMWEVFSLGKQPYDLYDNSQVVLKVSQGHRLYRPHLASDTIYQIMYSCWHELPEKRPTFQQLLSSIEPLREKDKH

Chain of Lyn (P07948 2-512): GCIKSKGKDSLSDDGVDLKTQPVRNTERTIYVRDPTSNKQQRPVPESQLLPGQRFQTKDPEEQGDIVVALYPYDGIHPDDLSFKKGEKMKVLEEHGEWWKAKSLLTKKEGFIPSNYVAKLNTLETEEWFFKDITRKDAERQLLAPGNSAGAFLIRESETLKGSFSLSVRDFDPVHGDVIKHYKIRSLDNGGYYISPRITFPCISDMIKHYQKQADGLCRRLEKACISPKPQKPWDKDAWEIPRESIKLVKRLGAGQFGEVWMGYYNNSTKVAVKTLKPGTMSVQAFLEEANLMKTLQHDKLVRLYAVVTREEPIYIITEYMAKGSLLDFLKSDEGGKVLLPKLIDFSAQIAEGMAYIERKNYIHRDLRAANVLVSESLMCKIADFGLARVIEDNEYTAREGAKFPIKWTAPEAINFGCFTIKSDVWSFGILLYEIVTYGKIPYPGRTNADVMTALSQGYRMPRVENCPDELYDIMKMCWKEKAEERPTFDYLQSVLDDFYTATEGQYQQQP
Chain of Btk (Q06187 2-659): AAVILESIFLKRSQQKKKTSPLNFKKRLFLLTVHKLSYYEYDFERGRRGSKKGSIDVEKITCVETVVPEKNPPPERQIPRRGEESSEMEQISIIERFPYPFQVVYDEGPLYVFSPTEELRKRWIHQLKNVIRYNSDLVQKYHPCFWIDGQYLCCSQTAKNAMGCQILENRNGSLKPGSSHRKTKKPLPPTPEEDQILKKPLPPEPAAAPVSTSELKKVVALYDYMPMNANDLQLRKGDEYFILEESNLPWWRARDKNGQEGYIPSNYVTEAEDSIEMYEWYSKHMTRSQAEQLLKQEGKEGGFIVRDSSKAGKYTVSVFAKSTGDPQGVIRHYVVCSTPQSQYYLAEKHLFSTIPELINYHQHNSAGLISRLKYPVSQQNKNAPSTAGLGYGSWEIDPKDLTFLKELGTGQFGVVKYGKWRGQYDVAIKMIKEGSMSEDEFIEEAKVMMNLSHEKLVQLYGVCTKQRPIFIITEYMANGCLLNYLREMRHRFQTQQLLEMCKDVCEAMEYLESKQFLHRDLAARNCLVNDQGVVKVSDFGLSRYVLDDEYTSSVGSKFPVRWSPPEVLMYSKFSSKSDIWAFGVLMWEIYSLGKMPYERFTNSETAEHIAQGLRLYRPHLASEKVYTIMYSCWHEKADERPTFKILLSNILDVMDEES

- IC50 (Btk): 2100 nM
- IC50 (Lyn): 150 nM
- IC50 (Syk): 1600 nM
Compound: CN1CCN(c2ccc(Nc3nc(N)c4cc(-c5c(Cl)cccc5Cl)c(=O)n(C)c4n3)cc2)CC1 [compound 19, IQS019]
- 400-kinase panel, residual activity at 0.1 and 10 μM (Bmx): the member of the Tec family of non-receptor tyrosine kinases, Bmx
